Tests used:
Canis familiaris [1] = test: Mean percent decrease in mean blood pressure was determined at the dose of 15 umol/kg (2 minutes after injection) in mongrel dogs; type: functional, Canis lupus familiaris
Canis familiaris [2] = test: Mean percent decrease in mean blood pressure was determined at the dose of 15 umol/kg in mongrel dogs; type: functional, Canis lupus familiaris

SMILES	Decrease in blood pressure (Canis familiaris [1]) [%]	Decrease in blood pressure (Canis familiaris [2]) [%]
COc1ccc(C[C@@H]2CCC[C@H]2N)cc1OC	7.5	25.1
COc1ccc(C[C@@H]2CCC[C@@H]2N)cc1OC	37.9	30

Source: ChEMBL document CHEMBL1122017, “Synthesis and peripheral cardiovascular action of cis- and trans-2-(3,4-dimethoxybenzyl)cyclopentylamine hydrochlorides” (1982)
